# Reference: patent publication US8785383B2, “Mast cell stabilizers in the treatment of obesity” (The Brigham and Women's Hospital, Inc., priority 2007, dated 2014)
# Entries after “also recorded” stand apart in the source; their conditions may differ.
# Legend:
# [1] = test system: IL6, TNF-α, IFN-γ, MCP-1, adiponectin, MMP-9, CatS, CatL, leptin in serum and/or WAT; assay: ELISA of serum and WAT adipokines; assay type: in vivo, mouse
# Description: Mouse body weight was monitored weekly. […] Mouse blood samples were collected for serum adipokine measurement.
# Frozen mouse WAT was pulverized and lysed in a RIPA buffer (Pierce, Rockford, Ill.) containing a protease inhibitor cocktail (Calbiochem, San Diego, Calif.). Both WAT and serum samples were subjected to ELISA analysis for IL6 (BD Biosciences), TNF-α (PeproTech, Rocky Hill, N.J.), IFN-γ (PeproTech), MCP-1 (PeproTech), adiponectin (R&D Systems), MMP-9 (R&D Systems), CatS (R&D Systems), and CatL (Bender MedSystems Inc, Burlingame, Calif.) according to manufacturers' instructions.
# [2] = test system: mast cell-deficient Kit^W-sh/W-sh mice; assay: DSCG treatment of mast cell-deficient Kit W-sh/W-sh mice on Western diet; assay type: in vivo, mouse
# Description: (§1) Wild-type (C57BL/6), Il6^−/− (C57BL/6, N11), and Ifng^−/− (C57BL/6, N10) mice were purchased from the Jackson Laboratories (Bar Harbor, Me.). Congenic Tnf^−/− (C56BL/6, N10) and mast cell-deficient Kit^W-sh/W-sh (C57BL/6, N>10) mice were generated by back-crossing to the C57BL/6 background as described (Sun, et al. Nat. Med. 13:719-724 (2007); Wolters, et al., Clin Exp Allergy 35:82-88 (2005)). The standing committee of Harvard Medical School approved all animal research protocols, and all mice were housed in a pathogen-free facility. To induce obesity, we fed 6-week-old mice (females and males) a Western diet (Research Diet, New Brunswick, N.J.) for 12-20 weeks. Mouse body weight was monitored weekly. By the end of each course of Western diet consumption, we performed glucose tolerance and energy expenditure assays as reported previously (Yang, et al., Nat. Cell Biol. 9:970-977 (2007)). Mouse blood samples were collected for serum adipokine measurement. Subcutaneous, visceral, and brown fat and skeletal muscle were harvested individually for protein extraction and paraffin section preparation. Tissue protein extracts were used for ELISA, immunoblot analysis, and cysteinyl cathepsin active site labeling. […]
# [3] = test system: obese and diabetic WT mice; assay: Treatment of established diet-induced obesity and diabetes (four treatment groups); assay type: in vivo, mouse
# Description: To assess the direct participation of mast cells in obesity, we studied mast cell-deficient Kit^W-sh/W-sh mice in diet-induced obesity. While Kit^W-sh/W-sh mice lack mature mast cells due to an inversion mutation of the c-Kit promoter region (Duttlinger, et al., Proc. Nat'l Acad. Sci. USA 92:3754-3758 (1995)), numbers and activities of other leukocytes in blood are normal, permitting probing of mast cell functions in vivo. […] To extend our observations, we fed WT mice a Western diet for 12 weeks to produce obesity and diabetes, and grouped these obese and diabetic mice into four treatment groups: I, continued feeding with a Western diet; II, switched to a chow diet; III, continued feeding with a Western diet together with a daily i.p. injection of DSCG; IV, switched to a chow diet and treated with DSCG.
# [4] = test system: Western diet-fed wild-type (C57BL/6) mice; assay: Energy expenditure assay; assay type: in vivo, mouse; settings: DSCG-treated WT mice vs untreated WT mice
# Description: as §1
# [5] = test system: Western diet-fed wild-type (C57BL/6) mice; assay: Glucose tolerance assay in Western diet-fed mice; assay type: in vivo, mouse; settings: WT mice treated with DSCG
# Description: as §1
# [6] = test system: Western diet-fed wild-type (C57BL/6) mice; assay: Diet-induced obesity, Western diet with daily i.p. DSCG; assay type: in vivo, mouse
# Description: as §1
# [7] = test system: CD117-positive mast cells and CD31-positive areas in WAT and muscle; assay: Immunohistology of WAT and muscle (CD117 mast cells, CD31 microvessels); assay type: in vivo, mouse; settings: DSCG-treated vs untreated mice, same dietary conditions
# Procedure: Human and mouse WAT and muscle tissues were fixed with 10% formalin overnight and embedded in paraffin, from which 5 μm sections were prepared. Anti-human mast cell tryptase (mouse monoclonal, 1:100, Dako, TRAPPES CEDEX, France), anti-mouse mast cell CD117 (rat monoclonal, 1:10, eBiosciences, Inc., San Diego, Calif.), and anti-mouse CD31 (rat monoclonal, 1:400, Pharmingen, San Diego, Calif.) immunostained for mast cells and microvessels on WAT, muscle, and liver sections. Researchers blinded to the origin of tissue counted human tryptase-positive and CD117-positive mast cells, and data are presented as cell numbers per mm^2. CD31-positive areas in WAT and muscle were determined using Image-Pro Plus software as described, and data were presented as percentage of CD31-positive areas (Wang, et al., J. Biol. Chem. 281:6020-6029 (2006); Wild, Microvasc Res. 59:368-376 (2000)). Hematoxylin and eosin staining assisted histologic assessment of the GI tract.
# [8] = test system: UCP1, fibronectin, Glut4, insulin receptor; assay: Immunoblot analysis of tissue protein extracts; assay type: in vivo, mouse
# Description: Wild-type (C57BL/6), Il6^−/− (C57BL/6, N11), and Ifng^−/− (C57BL/6, N10) mice were purchased from the Jackson Laboratories (Bar Harbor, Me.). Congenic Tnf^−/− (C56BL/6, N10) and mast cell-deficient Kit^W-sh/W-sh (C57BL/6, N>10) mice were generated by back-crossing to the C57BL/6 background as described (Sun, et al. Nat. Med. 13:719-724 (2007); Wolters, et al., Clin Exp Allergy 35:82-88 (2005)). The standing committee of Harvard Medical School approved all animal research protocols, and all mice were housed in a pathogen-free facility. To induce obesity, we fed 6-week-old mice (females and males) a Western diet (Research Diet, New Brunswick, N.J.) for 12-20 weeks. Mouse body weight was monitored weekly. By the end of each course of Western diet consumption, we performed glucose tolerance and energy expenditure assays as reported previously (Yang, et al., Nat. Cell Biol. 9:970-977 (2007)). Mouse blood samples were collected for serum adipokine measurement. Subcutaneous, visceral, and brown fat and skeletal muscle were harvested individually for protein extraction and paraffin section preparation. Tissue protein extracts were used for ELISA, immunoblot analysis, and cysteinyl cathepsin active site labeling. For immunoblot analysis, 30 μg of proteins were separated on an 8% SDS-PAGE to detect 220 kDa fibronectin (mouse monoclonal, 1:100, NeoMarkers, Fremont, Calif.) and 200 kDa insulin receptor (mouse monoclonal, 1:100, Calbiochem, San Diego, Calif.) or a 12% SDS-PAGE to detect Glut4 (mouse monoclonal, 1:200, R&D Systems, Minneapolis, Minn.), UCP1 (rabbit polyclonal, 1:3000, Abcam, Cambridge, Mass.), actin (mouse monoclonal, 1:500, Abcam), and glyceraldehyde-3-phosphate dehydrogenase (GAPDH, rabbit polyclonal, 1:1000, Santa Cruz Biotechnolog, Santa Cruz, Calif.). For cathepsin active site labeling, 30 μg of proteins were incubated with 1 μl of 600 mM dithiothreitol and 1 μl of [^125I]-JPM in a pH5.5 buffer as previously described. After incubating the reaction mixture at 37° C. for 1 hour, labeled proteins were separated on a 12% SDS-PAGE. Gel was stained with Coomassie blue, destained, dried, and exposed to an x-ray film. The liver and GI tract were harvested for histologic analysis.
# [9] = test system: liver, gastrointestinal tract, pancreas
# Description: Wild-type (C57BL/6), Il6^−/− (C57BL/6, N11), and Ifng^−/− (C57BL/6, N10) mice were purchased from the Jackson Laboratories (Bar Harbor, Me.). Congenic Tnf^−/− (C56BL/6, N10) and mast cell-deficient Kit^W-sh/W-sh (C57BL/6, N>10) mice were generated by back-crossing to the C57BL/6 background as described (Sun, et al. Nat. Med. 13:719-724 (2007); Wolters, et al., Clin Exp Allergy 35:82-88 (2005)). The standing committee of Harvard Medical School approved all animal research protocols, and all mice were housed in a pathogen-free facility. To induce obesity, we fed 6-week-old mice (females and males) a Western diet (Research Diet, New Brunswick, N.J.) for 12-20 weeks. Mouse body weight was monitored weekly. […]
# Human and mouse WAT and muscle tissues were fixed with 10% formalin overnight and embedded in paraffin, from which 5 μm sections were prepared. […] Researchers blinded to the origin of tissue counted human tryptase-positive and CD117-positive mast cells, and data are presented as cell numbers per mm^2. CD31-positive areas in WAT and muscle were determined using Image-Pro Plus software as described, and data were presented as percentage of CD31-positive areas (Wang, et al., J. Biol. Chem. 281:6020-6029 (2006); Wild, Microvasc Res. 59:368-376 (2000)). […]
structure (smiles),measurement,setting,value
"O=C(O)c1cc(=O)c2c(OCC(O)COc3cccc4oc(C(=O)O)cc(=O)c34)cccc2o1 [DSCG, disodium cromoglycate]",serum leptin levels,"[1]; male and female mice, Western diet, vs WT controls",significantly lower levels
same,CatS levels in serum (ELISA),[1]; serum,reduced significantly
same,CatL level,"[1]; serum and/or WAT, Western diet",did not change significantly
same,IFN-γ level,"[1]; serum and/or WAT, Western diet",lower levels
same,IL6 level,"[1]; serum and/or WAT, Western diet",lower levels
same,MCP-1 level,"[1]; serum and/or WAT, Western diet",lower levels
same,TNF-α level,"[1]; serum and/or WAT, Western diet",lower levels
same,adiponectin level,"[1]; serum and/or WAT, Western diet",did not change significantly
same,cathepsin S (CatS) level,"[1]; serum and/or WAT, Western diet",lower levels
same,matrix metalloprotease-9 (MMP-9) level,"[1]; serum and/or WAT, Western diet",lower levels
same,glucose tolerance in Kit^W-sh/W-sh mice,[2],did not further change
same,body weight (gain) of Kit^W-sh/W-sh mice,[2]; Western diet,did not further affect the body weight; also recorded: did not further change
same,body weight decrease,"[3]; group III: obese mice, continued Western diet plus daily i.p. DSCG, eight weeks",12%
same,glucose tolerance,"[3]; group IV: chow diet plus DSCG, compared among four groups",highest glucose tolerance among the four groups
same,body weight at which mice stabilized,"[3]; group IV: chow diet plus DSCG, eight weeks",40˜41 grams
same,body weight decrease,"[3]; group IV: obese mice switched to chow diet and treated with DSCG, eight weeks",19%
same,O2 consumption and CO2 production,[4],significantly more O2 consumption and CO2 production
same,resting metabolic rate,[4],increased resting metabolic rate
same,glucose tolerance,[5],significantly improved glucose tolerance
same,body weight gain,"[6]; male WT mice, Western diet 12 weeks, daily i.p. injection, vs untreated WT",attenuated body weight gain
same,total subcutaneous and visceral fat,"[6]; male mice, Western diet, vs untreated WT controls",significantly less total subcutaneous and visceral fat
same,mast cell numbers in WAT,[7],mast cell numbers similar to WAT from untreated mice
same,Glut4 in WAT and muscle,[8]; DSCG-treated mice,more
same,fibronectin in WAT and muscle,[8]; DSCG-treated mice,more
same,insulin receptor (IR) in WAT and muscle,[8]; DSCG-treated mice,more
same,brown fat UCP1 expression,"[8]; brown fat, vs WT control mice",obviously higher brown fat UCP1 expression
same,mast cells or lipid-loaded adipocytes in livers,[9]; Western diet-fed WT mice treated with DSCG,did not detect mast cells or lipid-loaded adipocytes
same,food/water intake and toxic effect,"[9]; mouse, in vivo",neither reduced food/water intake nor any toxic effect of DSCG
